Assays:
MOLT-4 cells = test: Flow cytometric DNA cell cycle analysis (sub-G1 fraction); assay type: cell-based, Human; details: 24 hr
Method: Effect of DNA content by cell cycle phase distribution was assessed using MOLT-4 cells. […] The incubation period was 3 hrs in case of camptothecin and 24 hrs. in rest of the treatments. The cells were then washed twice with ice-cold PBS, harvested, fixed with ice-cold PBS in 70% ethanol, and stored at -20 °C for 30 min. After fixation, the cells were incubated with RNase A (0.1 mg/ml) at 37°C for 30 min, stained with propidium iodide (50 µg/ml) for 30 min on ice in dark, and then measured for DNA content using BD-LSR Flow cytometer (Becton Dickinson, USA) equipped with electronic doublet, discrimination capability using blue (488nm) excitation from argon laser. Data were collected in list mode on 10,000 events for FL2-A vs. FL2-W and analyzed using Mod Fit 2.0 software (Fig 4). […] The sub-G1 fractions for control and camptothecin were 0.64 (Fig. 4A) and 11.92 % (Fig. 4B).

HL-60 cells = test: Annexin V-FITC/PI flow cytometric analysis of apoptosis; assay type: cell-based, human; details: 24 h
Method: Induction of apoptosis in vitro by Compound 3b and 3f was further determined in HL-60 cells by flow cytometric assay using an Annexin V-FITC Apoptosis Detection Kit (BD Biosciences Pharmingen, San Diego, USA). Camptothecin was included in the study for comparison. Exponentially growing HL-60 cells in complete RPMI-1640 media (100 µl of 5×10^6) were plated in six well plates. 10 µl of each Compound in DMSO (5 and 10 µM concentrations) was added to the wells followed by the addition of required media (total volume 1ml). Plates were incubated at 37°C for 24 h. The cells were centrifuged at room temperature at 1500 rpm for 5 min. The pellet was washed twice with cold PBS and was re-suspended in the binding buffer (1X, 100µl) provided in the Kit. The cells were stained with Annexin V-FITC (5 µl) and Propidium Iodide [PI] (5µl) and incubated for 15 min in the dark at 25°C. Next 400µl of binding buffer was added to each tube and analyzed on a FACScan flow cytometer (Becton Dickinson, Mountainview, CA) using Cell Quest software. Cells stained with both Annexin-V-FITC and PI, containing DMSO as vehicle was used as stained control. Cells that were annexin^+ /Pr [Lower right quadrant (LR)] and annexin^+/PI^+ [Upper right quadrant (UR)] were considered as early apoptotic and late apoptotic respectively.

HCT-15 = test: SRB in vitro cytotoxicity, human tumor cell line; assay type: cell-based; details: 10^-5 M, Colon: HCT-15, read-out: growth inhibition
Method: (§1) Compounds 3a-g were screened by sulforhodamine-B (SRB) semi-automated assay in a battery of cell lines. […] A., et. al. (1991); Feasibility high flux anticancer screen utilizing diverse panel of human tumor cell lines in culture. J Natl Cancer Inst. 83, 757-766]. Each compound was tested in triplicate sets of experiments at 10^-4 to 10^-6 M concentrations (Table 4).
(§2) A stock solution of 2 x 10^-2M was prepared in DMSO. The stock solutions were serially diluted to obtain working test solutions with complete growth medium (RPMI-1640 medium with 2mM glutamine, 100µg/ml streptomycin, pH 7.4, sterilized by filtration and supplemented with 10% fetal bovine serum and 100 units/ml penicillin before use) containing 50 µg/ml of gentamycin to obtain working test solutions. The working test solutions were not filtered/ sterilized but microbial contamination was controlled by addition of gentamycin in complete growth medium used for dilution of stock solutions to prepare working test solutions.
(§3) In vitro cytotoxicity against human cancer cell lines was determined^2 [Monk. A., et. al. (1991); Feasibility high flux anticancer screen utilizing diverse panel of human tumor cell lines in culture. J Natl Cancer Inst. 83, 757-766] using 96-well tissue culture plates. The cells were grown in tissue culture flasks in complete growth medium at 37°C in an atmosphere of 5% CO2 and 95% relative humidity in a carbon dioxide incubator. The cell suspension of required cell density (1-2 lakhs/ml) depending on the mass doubling time of cell lines was prepared in complete growth medium for determination of cytotoxicity. The aliquots of 100 µl of cell suspension were added to each well on a 96-well tissue culture plate. The blank wells contained complete medium in place of cell suspension. Simultaneously, control experiments with positive controls containing known anticancer agents were carried out. Cells were incubated for 24 hr.
(§4) The test materials (100 µl in each well) were added after 24-hours to the wells containing cell suspension and blank wells. The cells were allowed to grow in presence of test material by further incubating the plates for 48 hours. At the end of incubation period the cell growth was stopped by gently layering trichloroacetic acid (50% TCA, 50µl/well) on top of the medium in all the wells. The plates were incubated at 4°C for 1 hr. The plates were washed five times with distilled water to remove TCA, growth medium, low molecular weight metabolites, serum proteins etc. and air-dried.
(§5) The cell growth was measured^3 [Skehan, P, Storeng, R Scudiero, D, Monks, A, Mcmahon, J, Vistica, D, Warren, J.T., Bokesch, H., Kenney, S., Boyd, M.R. (1990). New colorimetric cytotoxicity assay for anti-cancer drug screening. J Natl Cancer Inst. 82: 1107-12] by staining with Sulphorhodamine B. Sulphorhodamine B (SRB, 0.4% in 1% acetic acid, 100 µl/well) was added to each well and plates were allowed to stand at room temperature for 30 minutes. The plates were washed with 1% acetic acid four times and then dried. Tris-HCl buffer (0.01 M, pH 10.5, 100 µl/well) was added to each well to solublise the dye. The plates were shaken gently for 10 minutes on a shaker and the optical density was recorded on ELISA reader at 540 nm. The cell growth was determined by subtracting mean OD value of respective blank from the mean OD value of experimental set. Percent growth in presence of test material was calculated considering the growth in absence of any test material as 100% and in turn percent growth inhibition in presence of test material was calculated. All the experiments were carried out in quadruplicate.

502713 = test: SRB in vitro cytotoxicity, human tumor cell line; assay type: cell-based; details: 10^-5 M, Colon: 502713, read-out: growth inhibition
Method: as §1, §2, §3, §4, §5

A549 = test: SRB in vitro cytotoxicity, human tumor cell line; assay type: cell-based; details: 10^-5 M, Lung: A549, read-out: growth inhibition
Method: as §1, §2, §3, §4, §5

DU-145 = test: SRB in vitro cytotoxicity, human tumor cell line; assay type: cell-based; details: 10^-5 M, Prostate: DU-145, read-out: growth inhibition
Method: as §1, §2, §3, §4, §5

COLO-205 = test: SRB in vitro cytotoxicity, human tumor cell line; assay type: cell-based; details: 10^-5 M, Colon: COLO-205, read-out: growth inhibition
Method: as §1, §2, §3, §4, §5

Hep-2 = test: SRB in vitro cytotoxicity, human tumor cell line; assay type: cell-based; details: 10^-5 M, Liver: Hep-2, read-out: growth inhibition
Method: as §1, §2, §3, §4, §5

## O=C1c2cccc3c([N+](=O)[O-])ccc(c23)C(=O)N1CCCCl [Compound 3f, 6-Nitro-2-[3-(Chloropropyl)]-1H-benz[de]isoquinoline-1,3-dione]
MOLT-4 cells; 1.5 µg/ml
  sub-G1 fraction (apoptotic): 4.52%
MOLT-4 cells; 5 µg/ml
  sub-G1 fraction (apoptotic): 5.86%
HL-60 cells; 5 µM
  early apoptotic cells (Annexin V^+/PI^-), LR: 16.4%
  late apoptotic cells (Annexin V^+/PI^+), UR: 31.5%
  total apoptotic cells (apoptotic cell population): 47.9%
HL-60 cells; 10 µM
  early apoptotic cells (Annexin V^+/PI^-), LR: 11.5%
  late apoptotic cells (Annexin V^+/PI^+), UR: 81.0%
  total apoptotic cells (apoptotic cell population): 92.5%
HCT-15
  inhibition at 10 µM: > 50%
502713
  inhibition at 10 µM: > 50%
A549
  inhibition at 10 µM: ≤ 50%
DU-145
  inhibition at 10 µM: > 50%
COLO-205
  inhibition at 10 µM: > 50%
Hep-2
  inhibition at 10 µM: > 50%

Source: EP2118065B1, “Substituted 1H-benz[de]isoquinoline-1,3-diones” (priority 2007, dated 2008)
